# Biological target: human active recombinant p38α-6His tagged (Homo sapiens, UniProt Q16539)
# Assay: P38 Alpha Enzyme Assay (AlphaScreen, biotinylated-ATF2 substrate);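 also: 0.5 nM final p38α, reaction started with ATP and run 45 min at 37 °C, phospho-ATF2 read by antibody-based AlphaScreen, background wells quenched with EDTA before ATP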
# Assay type: biochemical
# Settings: p38 alpha enzyme inhibition; means of replicate determinations; 4 h pre-incubation at 37° C.; SD of assay 0.2-0.3 log units
# human active recombinant p38α-6His tagged, sequence (Q16539 whole entry): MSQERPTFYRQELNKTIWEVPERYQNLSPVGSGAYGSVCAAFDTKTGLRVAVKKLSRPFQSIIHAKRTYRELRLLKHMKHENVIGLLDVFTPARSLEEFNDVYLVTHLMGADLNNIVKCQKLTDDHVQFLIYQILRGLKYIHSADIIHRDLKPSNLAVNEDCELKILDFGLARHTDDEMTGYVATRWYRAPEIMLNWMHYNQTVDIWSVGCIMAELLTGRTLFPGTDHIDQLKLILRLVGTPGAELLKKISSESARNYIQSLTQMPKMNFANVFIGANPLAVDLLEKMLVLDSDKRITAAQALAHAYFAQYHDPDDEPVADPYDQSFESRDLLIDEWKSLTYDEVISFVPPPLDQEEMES
row,SMILES,pIC50
1,"Cc1ccc(C(=O)NC2CC2)cc1-n1ccnc(NC(C)(C)c2ccccc2OCC2CCCNC2)c1=O (centres unmarked) [Example 218, N-Cyclopropyl-4-methyl-3-[3-[[1-methyl-1-[2-(3-piperidinylmethoxy)phenyl]ethyl]amino]-2-oxo-1(2H)-pyrazinyl]-benzamide]",9.1
2,"Cc1ccc(C(=O)NC2CC2)cc1-n1ccnc(NC[C@@H](C)c2ccccc2)c1=O [Example 58, N-Cyclopropyl-4-methyl-3-[2-oxo-3-[[(2S)-2-phenylpropyl]amino]-1(2H)-pyrazinyl]-benzamide]",7
3,"CNC[C@H](O)COc1ccccc1C1(Nc2nccn(-c3cc(C(=O)NC4CC4)ccc3C)c2=O)CC1 [Example 304, N-Cyclopropyl-3-[3-{[1-(2-{[(2S)-2-hydroxy-3-(methylamino)propyl]oxy}phenyl)cyclopropyl]amino}-2-oxopyrazin-1(2H)-yl]-4-methylbenzamide]",10.2
4,"CONC(=O)c1ccc(C)c(-n2ccnc(N[C@@H](c3ccccc3)[C@@H](C)CN3CCOCC3)c2=O)c1 [Example 160, N-Methoxy-4-methyl-3-[3-[[(1R,2S)-2-methyl-3-(4-morpholinyl)-1-phenylpropyl]amino]-2-oxo-1(2H)-pyrazinyl]-benzamide]",9.8
5,"CONC(=O)c1ccc(C)c(-n2ccnc(NC(C)(C)c3ccccc3)c2=O)c1 [Example 112, N-Methoxy-4-methyl-3-[3-[(1-methyl-1-phenylethyl)amino]-2-oxo-1(2H)-pyrazinyl]]",9.4
6,"Cc1ccccc1CNc1nccn(-c2cc(C(=O)NC3CC3)ccc2C)c1=O [Example 39, N-Cyclopropyl-4-methyl-3-[3-[[(2-methylphenyl)methyl]amino]-2-oxo-1(2H)-pyrazinyl]-benzamide]",7.5
7,"Cc1ccc(C(=O)NC2CC2)cc1-n1ccnc(N[C@@H](c2ccccc2)[C@@H](C)CNC2CC2)c1=O [Example 183, N-Cyclopropyl-3-[3-[[(1R,2S)-3-(cyclopropylamino)-2-methyl-1-phenylpropyl]amino]-2-oxo-1(2H)-pyrazinyl]-4-methyl-benzamide]",9
8,"Cc1ccc(C(=O)NC2CC2)cc1-n1ccnc(NCCCN(C)C)c1=O [Example 3, N-Cyclopropyl-3-[3-[[3-(dimethylamino)propyl]amino]-2-oxo-1(2H)-pyrazinyl]-4-methyl-benzamide]",6.1
9,"CCNC[C@@H](O)COc1ccccc1C(C)(C)Nc1nccn(-c2cc(C(=O)NC3CC3)cc(F)c2C)c1=O [Example 308, N-Cyclopropyl-3-[3-{[1-(2-{[(2R)-3-(ethylamino)-2-hydroxypropyl]oxy}phenyl)-1-methylethyl]amino}-2-oxopyrazin-1(2H)-yl]-5-fluoro-4-methylbenzamide]",10.4
10,"Cc1ccc(C(=O)NC2CC2)cc1-n1ccnc(NCc2cc(C(F)(F)F)cc(C(F)(F)F)c2)c1=O [Example 99, 3-[3-[[[3,5-Bis(trifluoromethyl)phenyl]methyl]amino]-2-oxo-1(2H)-pyrazinyl]-N-cyclopropyl-4-methyl-benzamide]",7.1
11,"CNCCOc1ccccc1C(C)(C)Nc1nccn(-c2cc(C(=O)NOC)cc(F)c2C)c1=O [Example 316, 3-Fluoro-N-methoxy-4-methyl-5-{3-[(1-methyl-1-{2-[2-(methylamino)ethoxyl]phenyl}ethyl)amino]-2-oxopyrazin-1(2H)-yl}benzamide]",10.4
12,"Cc1ccc(C(=O)NC2CC2)cc1-n1ccnc(N[C@@H](c2ccccc2)[C@@H](C)CN2C[C@@H](C)N[C@@H](C)C2)c1=O [Example 194, N-Cyclopropyl-3-[3-[[(1R,2S)-3-[(3R,5S)-3,5-dimethyl-1-piperazinyl]-2-methyl-1-phenylpropyl]amino]-2-oxo-1(2H)-pyrazinyl]-4-methyl-benzamide]",9.1
13,"Cc1ccc(C(=O)NC2CC2)cc1-n1ccnc(N2CCN(C)CC2)c1=O [Example 2, N-Cyclopropyl-4-methyl-3-[3-(4-methyl-1-piperazinyl)-2-oxo-1(2H)-pyrazinyl]-benzamide]",6.4
14,"Cc1ccc(C(=O)NC2CC2)cc1-n1ccnc(N[C@@H](c2ccccc2)[C@@H](C)CN2CC3CC2CN3C)c1=O (stereo partly drawn) [Example 196, N-Cyclopropyl-4-methyl-3-[3-[[(1R,2S)-2-methyl-3-(5-methyl-2,5-diazabicyclo[2.2.1]hept-2-yl)-1-phenylpropyl]amino]-2-oxo-1(2H)-pyrazinyl]-benzamide]",8.9
15,"CNCCCOc1ccccc1C(C)(C)Nc1nccn(-c2cc(C(=O)NC3CC3)ccc2C)c1=O [Example 164, N-Cyclopropyl-4-methyl-3-[3-[[1-methyl-1-[2-[3-(methylamino)propoxy]phenyl]ethyl]amino]-2-oxo-1(2H)-pyrazinyl]-benzamide]",9.6
16,"CNCCCOc1ccccc1C1CCCN1c1nccn(-c2cc(C(=O)NC3CC3)ccc2C)c1=O (centres unmarked) [Example 324, N-Cyclopropyl-4-methyl-3-[3-(2-{2-[3-(methylamino)propoxy]phenyl}pyrrolidin-1-yl)-2-oxopyrazin-1(2H)-yl]benzamide]",8.1

row,SMILES,pIC50
1,"CCc1ccc(C(=O)NC2CC2)cc1-n1ccnc(NC(C)(C)c2ccccc2OCCNC)c1=O [Example 288, N-Cyclopropyl-4-ethyl-3-{3-[(1-methyl-1-{2-[2-(methylamino)ethoxy]phenyl}ethyl)amino]-2-oxopyrazin-1(2H)-yl}benzamide]",8.4
2,"Cc1ccc(C(=O)NC2CC2)cc1-n1ccnc(N[C@@H](c2ccccc2)[C@@H](C)CN(C)C(C)(C)C)c1=O [Example 154, N-Cyclopropyl-3-[3-[[(1R,2S)-3-[(1,1-dimethylethyl)methylamino]-2-methyl-1-phenylpropyl]amino]-2-oxo-1(2H)-pyrazinyl]-4-methyl-benzamide]",9
3,"Cc1ccc(C(=O)NC2CC2)cc1-n1ccnc(NC2(c3ccccc3OCCNC(C)C)CCC2)c1=O [Example 271, N-Cyclopropyl-4-methyl-3-[3-[[1-[2-[2-[(1-methylethyl)amino]ethoxy]phenyl]cyclobutyl]amino]-2-oxo-1(2H)-pyrazinyl]-benzamide]",9.9
4,"Cc1ccccc1CCNc1nccn(-c2cc(C(=O)NC3CC3)ccc2C)c1=O [Example 72, N-Cyclopropyl-4-methyl-3-[3-[[2-(2-methylphenyl)ethyl]amino]-2-oxo-1(2H)-pyrazinyl]-benzamide]",7.2
5,"Cc1ccc(C(=O)NC2CC2)cc1-n1ccnc(NCc2ccc(S(C)(=O)=O)cc2)c1=O [Example 25, N-Cyclopropyl-4-methyl-3-[3-[[[4-(methylsulfonyl)phenyl]methyl]amino]-2-oxo-1(2H)-pyrazinyl]-benzamide]",5.5
6,"Cc1ccc(C(=O)NC2CC2)cc1-n1ccnc(N[C@@H](c2ccccc2)[C@@H](C)CN2CC[C@H](O)C2)c1=O [Example 190, N-Cyclopropyl-3-[3-[[(1R,2S)-3-[(3S)-3-hydroxy-1-pyrrolidinyl]-2-methyl-1-phenylpropyl]amino]-2-oxo-1(2H)-pyrazinyl]-4-methyl-benzamide]",9
7,"Cc1ccc(C(=O)NC2CC2)cc1-n1ccnc(NC2(c3ccccc3OCCN3CCCC3)CC2)c1=O [Example 238, N-Cyclopropyl-4-methyl-3-[2-oxo-3-[[1-[2-[2-(1-pyrrolidinyl)ethoxy]phenyl]cyclopropyl]amino]-1(2H)-pyrazinyl]-benzamide]",9.7
8,"Cc1ccc(C(=O)NC2CC2)cc1-n1ccnc(N[C@@H](c2ccccc2)[C@@H](C)CNC2CCNCC2)c1=O [Example 195, N-Cyclopropyl-4-methyl-3-[3-[[(1R,2S)-2-methyl-1-phenyl-3-(4-piperidinylamino)propyl]amino]-2-oxo-1(2H)-pyrazinyl]-benzamide]",8.8
9,"Cc1ccc(C(=O)NC2CC2)cc1-n1ccnc(NC(C)(C)c2ccccc2OCCNCCO)c1=O [Example 211, N-Cyclopropyl-3-[3-[[1-[2-[2-[(2-hydroxyethyl)amino]ethoxy]phenyl]-1-methylethyl]amino]-2-oxo-1(2H)-pyrazinyl]-4-methyl-benzamide]",9.6
10,"Cc1ccc(C(=O)NC2CC2)cc1-n1ccnc(NCc2ccc(Oc3ccccc3)cc2)c1=O [Example 45, N-Cyclopropyl-4-methyl-3-[2-oxo-3-[[(4-phenoxyphenyl)methyl]amino]-1(2H)-pyrazinyl]-benzamide]",6.5
11,"Cc1ccc(C(=O)NC2CC2)cc1-n1ccnc(N2CCN(C)CC2c2ccccc2)c1=O (centres unmarked) [Example 119, N-Cyclopropyl-4-methyl-3-[3-(4-methyl-2-phenyl-1-piperazinyl)-2-oxo-1(2H)-pyrazinyl]-benzamide]",6.6
12,"CSc1ccccc1CNc1nccn(-c2cc(C(=O)NC3CC3)ccc2C)c1=O [Example 128, N-Cyclopropyl-4-methyl-3-[3-[[[2-(methylthio)phenyl]methyl]amino]-2-oxo-1(2H)-pyrazinyl]-benzamide]",8.2
13,"COc1ccccc1C1CCCN1c1nccn(-c2cc(C(=O)NC3CC3)ccc2C)c1=O (centres unmarked) [Example 97, N-Cyclopropyl-3-[3-[2-(2-methoxyphenyl)-1-pyrrolidinyl]-2-oxo-1(2H)-pyrazinyl]-4-methyl-benzamide]",8.7
14,"Cc1ccc(C(=O)NC2CC2)cc1-n1ccnc(NCC(C)(C)C)c1=O [Example 49, N-Cyclopropyl-3-[3-[(2,2-dimethylpropyl)amino]-2-oxo-1(2H)-pyrazinyl]-4-methyl-benzamide]",6.9
15,"CNCCOc1ccccc1C(C)(C)Nc1nccn(-c2cc(C(=O)NC3CC3)cc(F)c2C)c1=O [Example 169, N-Cyclopropyl-3-fluoro-4-methyl-5-[3-[[1-methyl-1-[2-[2-(methylamino)ethoxy]phenyl]ethyl]amino]-2-oxo-1(2H)-pyrazinyl]-benzamide]",9.9
16,"Cc1c(F)cc(C(=O)NC2CC2)cc1-n1ccnc(NC(C)(C)c2ccccc2SCCNCCO)c1=O [Example 322, N-Cyclopropyl-3-fluoro-5-[3-({1-[2-({2-[(2-hydroxyethyl)amino]ethyl}sulfanyl)phenyl]-1-methylethyl}amino)-2-oxopyrazin-1(2H)-yl]-4-methylbenzamide]",9.8

# Reference: patent US20120214822A1 (ASTRAZENECA AB, priority 2007, published 2012)
